Measurements taken from publication PMC10823514, “Target Identification of a Class of Pyrazolone Protein Aggregation Inhibitor Therapeutics for Amyotrophic Lateral Sclerosis” (ACS Central Science, 2023).
Like-named read-outs stand apart in the source and are kept apart here.

Key:
[1] = test system: PC12 SOD1^G93A cells; assay: Neuroprotection against MG-132-induced toxicity in PC12 cells expressing mutant SOD1^G93A (calcein-AM viability); format: cell-based; details: Rattus norvegicus, PC-12, read-out: EC50 to ameliorate MG132-induced protein aggregation and cellular toxicity
Description: With this information in hand, we implemented a phenotypic drug discovery approach to identify a novel therapeutic for treating ALS. The study employed a rat PC12 cell-based assay that expresses SOD1^G93A mutation for screening a chemical library of more than 50,000 compounds to identify promising hits (Figure 1 compounds 3 and 4). The hits are based on attenuating proteasome inhibitor MG-132-induced SOD1^G93A cellular toxicity.
Viability EC50 values were determined according to the previously reported assay procedure.[43] Briefly, PC12 cells were seeded at 15,000 cells/well in 96-well plates, and the medium was changed to remove the doxycycline 4 days prior to compound addition. Compounds were assayed in 12-point dose–response experiments to determine the potency and efficacy. The highest compound concentration tested was 32 μM, which was decreased by half with each subsequent dose. After a 24 h incubation with the analytes, MG-132 (400 nM) was added and the cells were incubated at 37 °C for 24 h. The cells were washed twice with PBS. Calcein-AM was added at a final concentration of 1 μM for 20 min at room temperature, and the fluorescence intensity was read in a POLARstar fluorescence plate reader (BMG). EC50 values were determined by standardizing fluorescent signal to DMSO treated controls. […] The presented data represent the mean average of duplicate experiments.

[2] = PRAPP photolysis under 312 nm UV, followed by HPLC; format: physicochemical; details: PBS under 312 nm UV irradiation; irradiation at 312 nm, 100 μM in PBS pH 7.4; read-out: photolysis half-life (T1/2)
Description: The PRAPP (100 μM) was dissolved in PBS (50 mM, pH 7.4 [1% DMSO v/v]) and irradiated with UV light (λ = 312 nm, 120 V, 60 Hz, 0.2 A [Spectroline model EB-160C], distance ∼4 cm). UV light was removed from the reaction mixtures at varying time points (1, 2, 5, 10, and 20 min) and immediately analyzed by HPLC-UV–vis278 nm (injection volume of 5 μL). PRAPP % remaining was determined based on the area under the curve (AUC) of the UV–vis278 nm chromatogram. A first-order exponential decay curve was generated based on the AUC of the UV–vis chromatogram at 0, 1, 2, 5, 10, and 20 min and used to determine t1/2 of photolysis.

[3] = biological target: T1, 14-3-3-B (Homo sapiens, UniProt P31946); assay: Fluorescent thermal shift assay (FTSA) with 14-3-3-B; format: binding; details: 0 and 100 μM P2
T1 construct: His-tag (TEV-cleavable) (cleaved yes); host or cells: E. coli (BL21)
T1 sequence (P31946 1-246): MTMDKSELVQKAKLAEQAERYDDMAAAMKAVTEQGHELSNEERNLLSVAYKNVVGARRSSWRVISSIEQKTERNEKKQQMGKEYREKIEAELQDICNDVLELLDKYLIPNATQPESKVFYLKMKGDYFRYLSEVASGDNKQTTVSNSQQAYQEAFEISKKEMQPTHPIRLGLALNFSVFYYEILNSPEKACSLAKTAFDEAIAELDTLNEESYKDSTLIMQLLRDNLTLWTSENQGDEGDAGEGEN
Description: (§1) His-tagged 14-3-3-E, B, and H plasmids were purchased from Addgene (plasmid ID# 31562, 39128, and 38814, respectively). E. coli (BL21) were transformed with extracted plasmids via heat shock and plated on selected media. Individual colonies were selected, grown, and sequenced to confirm gene presence. 1 L cultures were grown to an OD600 of 0.6 at 37 °C and 220 rpm. Protein expression was induced with 1 mM IPTG and expressed for 12 h at 100 rpm and room temperature (approximately 25 °C). Cells were spun down at 4000 rpm for 15 min at 4 °C and resuspended in lysis buffer containing 50 mM Tris (7.4), 150 mM NaCl, 0.08% DDM, 5 mM imidazole, and 5% glycerol (with an EDTA-free complete mini protease inhibitor cocktail). Cells were lysed via sonication, and the lysate was separated from cell debris by centrifugation at 15,000 rpm, 4 °C, for 45 min. The His-tagged protein was purified using QIAGEN Ni-NTA superflow columns, and the His-tag was removed with TEV protease. His-tag-removed proteins were further purified by size exclusion chromatography. His tag removal and size exclusion chromatography purification were done at the Northwestern University Protein Production core. […]
(§2) All of the FTSA experiments were conducted in HEPES buffer (60 mM HEPES, 150 mM NaCl, pH 7.4). […] The fluorescence was measured on a Bio-Rad CFX384 real-time PCR instrument.

[4] = biological target: T2, 14-3-3-G (Homo sapiens, UniProt P61981); assay: Fluorescent thermal shift assay (FTSA) with 14-3-3-G; format: binding; details: 0 and 100 μM P2
T2 construct: purchased Abchem (so in the source)
T2 sequence (P61981 1-247): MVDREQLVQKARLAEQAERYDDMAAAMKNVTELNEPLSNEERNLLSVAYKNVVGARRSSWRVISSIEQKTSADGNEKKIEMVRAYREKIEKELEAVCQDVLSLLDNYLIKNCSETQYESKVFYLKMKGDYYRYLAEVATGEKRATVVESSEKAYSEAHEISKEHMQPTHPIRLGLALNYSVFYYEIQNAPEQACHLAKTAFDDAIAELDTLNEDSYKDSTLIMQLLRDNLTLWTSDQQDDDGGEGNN
Description: as §1, §2

[5] = test system: PC12 SOD1^G93A cells; details: neuroprotection against MG-132-induced SOD1^G93A toxicity in PC12 cells; leads of the authors' earlier work; read-out: EC50 (NP = neuroprotection); cited from earlier work

| SMILES | EC50 [1] | half-life at 100 μM [2] | binding (Tm shift) [3] | binding (Tm shift) [4] | EC50 [5] |
| --- | --- | --- | --- | --- | --- |
| C#CCN(Cc1cc(=O)[nH][nH]1)Cc1c(F)c(F)c(N=[N+]=[N-])c(F)c1F [PRAPP, 5-(((4-Azido-2,3,5,6-tetrafluorobenzyl)(prop-2-yn-1-yl)amino)methyl)-1,2-dihydro-3H-pyrazol-3-one] | 190 nM | 3.12 min |  |  |  |
| O=c1cc(COc2cc(Cl)cc(Cl)c2)[nH][nH]1 [P2] |  |  | no binding | no binding | 67 nM |
